# According to publication PMC5474678 (Journal of medicinal chemistry, 2015):
# Columns and labels:
# [1] = tested on: MV4;11 cells; assay: Cell viability assay; type: cell-based; conditions: Homo sapiens, MV4-11, 96 h, read-out: IC50 cell growth inhibition MV4
# [2] = tested on: MOLM-13 cells; assay: Cell viability assay; type: cell-based; conditions: Homo sapiens, MOLM-13, 96 h, read-out: IC50 cell growth inhibition MOLM-13
# [3] = tested on: K562 cells; assay: Cell viability assay; type: cell-based; conditions: Homo sapiens, K562, 96 h, read-out: IC50 cell growth inhibition K562
# [4] = target: BRD4 BD1 (Homo sapiens, UniProt O60885); assay: Competitive fluorescence polarization
# [5] = target: BRD4 BD2 (Homo sapiens, UniProt O60885); assay: Competitive fluorescence polarization
# [6] = target: BRD2 BD1 (Homo sapiens, UniProt P25440); assay: Competitive fluorescence polarization
# [7] = target: BRD3 BD1 (Homo sapiens, UniProt Q15059); assay: Competitive fluorescence polarization
# [8] = target: BRD3 BD2 (Homo sapiens, UniProt Q15059); assay: Competitive fluorescence polarization
# BRD3 BD2, sequence (Q15059 306-417): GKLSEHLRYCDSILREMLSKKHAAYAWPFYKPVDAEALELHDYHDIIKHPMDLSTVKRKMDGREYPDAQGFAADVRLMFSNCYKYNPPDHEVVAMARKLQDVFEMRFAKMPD
# BRD2 BD1, sequence (P25440 72-205): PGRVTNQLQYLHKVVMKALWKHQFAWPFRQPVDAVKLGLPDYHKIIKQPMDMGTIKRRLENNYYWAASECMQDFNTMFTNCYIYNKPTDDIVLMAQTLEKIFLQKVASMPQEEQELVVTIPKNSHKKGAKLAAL
# BRD3 BD1, sequence (Q15059 24-144): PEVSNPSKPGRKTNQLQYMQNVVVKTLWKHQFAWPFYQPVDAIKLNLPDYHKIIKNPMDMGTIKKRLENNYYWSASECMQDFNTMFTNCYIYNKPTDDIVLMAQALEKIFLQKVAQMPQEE
smiles,measurement,setting,value
"COc1cc2c(cc1-c1c(C)noc1C)[nH]c1ccnc(-c3c(-c4ccccc4)n[nH]c3C)c12 [Compound 19, 4-(8-Methoxy-1-(5-methyl-3-phenyl-1H-pyrazol-4-yl)-5H-pyrido[4,3-b]indol-7-yl)-3,5-dimethyl-isoxazole]",IC50,[1],34 ± 15 nM
same,IC50,[2],144 ± 31 nM
same,IC50,[3],> 2000 nM
same,IC50,[4],80.6 ± 1 nM
same,Ki,[4],26.9 ± 1 nM
same,IC50,[5],129 ± 45 nM
same,Ki,[5],38 ± 2.2 nM
same,Ki,[6],12.2 ± 1.7 nM
same,Ki,[7],10.4 ± 1 nM
same,Ki,[8],9.4 ± 1 nM
